Converted amounts (≈) assume the structure as drawn.
Columns and labels:
Type in all cases: cell-based
[1] = test system: S. aureus T5592; assay: MIC broth microdilution, clinical isolate; conditions: Staphylococcus aureus, 19 h at 35 °C, read-out: minimal inhibitory concentration (MIC)
Protocol: (§1) In the next stage of the experiment, 8 of 11 compounds were selected for a clinical strain activity evaluation against S. aureus, S. epidermidis, E. coli, K. pneumoniae, and P. aeruginosa.
(§2) The antimicrobial assays were conducted using reference strains of bacteria derived from international microbe collections: American Type Culture Collection (ATCC) and National Collection of Type Culture (NCTC). The following standard strains of bacteria were used: Gram-positive—Staphylococcus aureus NCTC 4163, Staphylococcus aureus ATCC 25923, Staphylococcus aureus ATCC 6538, Staphylococcus aureus ATCC 29213, Staphylococcus epidermidis ATCC 12228, Staphylococcus epidermidis ATCC 35984, Gram-negative: Escherichia coli ATCC 25922, Pseudomonas aeruginosa ATCC 15442. Clinical strains of bacteria used in this study: Gram-positive: Staphylococcus epidermidis 5253, Staphylococcus epidermidis 4243, Staphylococcus aureus T5592, Staphylococcus aureus T5591 and Gram-negative: Escherichia coli 520, Escherichia coli 600, Klebsiella pneumoniae 510 and Pseudomonas aeruginosa 659 were obtained from the collection of the Department of Pharmaceutical Microbiology, Medical University of Warsaw, Poland and they were isolated from different biological materials taken from the patients hospitalized in the Warsaw Medical University hospitals. […] MIC was determined by the two-fold serial broth microdilution method in 96-well microtitration plates using Mueller–Hinton II broth medium (Becton Dickinson, Franklin Lakes, NJ, USA). The final inoculum of all studied bacteria was 10^6 CFU/mL (colony forming unit per milliliter). The stock solution of tested compounds was prepared in dimethyl sulfoxide (DMSO) and diluted to a maximum of 1% of solvent content with a sterile medium.

[2] = test system: K. pneumoniae 510; assay: MIC broth microdilution, clinical isolate; conditions: Klebsiella pneumoniae; K. pneumoniae 510, clinical isolate, 19 h at 35 °C; read-out: minimal inhibitory concentration (MIC)
Protocol: as §1, §2

[3] = test system: S. aureus T5591; assay: MIC broth microdilution, clinical isolate; conditions: Staphylococcus aureus, 19 h at 35 °C, read-out: minimal inhibitory concentration (MIC)
Protocol: as §1, §2

[4] = test system: S. epidermidis 4243; assay: MIC broth microdilution, clinical isolate; conditions: Staphylococcus epidermidis; S. epidermidis 4243, clinical isolate, 19 h at 35 °C; read-out: minimal inhibitory concentration (MIC)
Protocol: as §1, §2

[5] = test system: P. aeruginosa 659; assay: MIC broth microdilution, clinical isolate; conditions: Pseudomonas aeruginosa; P. aeruginosa 659, clinical isolate, 19 h at 35 °C; read-out: minimal inhibitory concentration (MIC)
Protocol: as §1, §2

[6] = test system: E. coli 520; assay: MIC broth microdilution, clinical isolate; conditions: Escherichia coli; E. coli 520, clinical isolate, 19 h at 35 °C; read-out: minimal inhibitory concentration (MIC)
Protocol: as §1, §2

[7] = test system: E. coli 600; assay: MIC broth microdilution, clinical isolate; conditions: Escherichia coli; E. coli 600, clinical isolate, 19 h at 35 °C; read-out: minimal inhibitory concentration (MIC)
Protocol: as §1, §2

[8] = test system: S. epidermidis 5253; assay: MIC broth microdilution, clinical isolate; conditions: Staphylococcus epidermidis; S. epidermidis 5253, clinical isolate, 19 h at 35 °C; read-out: minimal inhibitory concentration (MIC)
Protocol: as §1, §2

[9] = test system: S. aureus ATCC 25923; assay: MIC broth microdilution, standard strain; conditions: Staphylococcus aureus, ATCC25923; S. aureus ATCC 25923, standard strain, 19 h at 35 °C; read-out: minimal inhibitory concentration (MIC)
Protocol: (§3) All synthesized compounds were tested in vitro against a set of bacteria, including representative standard Gram-positive and Gram-negative rods. Compounds were screened for their minimal inhibitory concentrations (MICs). […] These three compounds were also found to be good inhibitors of the growth of Gram-negative rods: […] The antimicrobial assays were conducted using reference strains of bacteria derived from international microbe collections: American Type Culture Collection (ATCC) and National Collection of Type Culture (NCTC). The following standard strains of bacteria were used: Gram-positive-Staphylococcus aureus NCTC 4163, Staphylococcus aureus ATCC 25923, Staphylococcus aureus ATCC 6538, Staphylococcus aureus ATCC 29213, Staphylococcus epidermidis ATCC 12228, Staphylococcus epidermidis ATCC 35984, Gram-negative: Escherichia coli ATCC 25922, Pseudomonas aeruginosa ATCC 15442. Clinical strains of bacteria used in this study: Gram-positive: Staphylococcus epidermidis 5253, Staphylococcus epidermidis 4243, Staphylococcus aureus […], Staphylococcus aureus […] and Gram-negative: Escherichia coli 520, Escherichia coli 600, Klebsiella pneumoniae 510 and Pseudomonas aeruginosa 659 were obtained from the collection of the Department of Pharmaceutical Microbiology, Medical University of Warsaw, Poland and they were isolated from different biological materials taken from the patients hospitalized in the Warsaw Medical University hospitals. Antimicrobial activity was examined by the minimal inhibitory concentration (MIC) method under standard procedures provided by CLSI with some modifications. MIC was determined by the two-fold serial broth microdilution method in 96-well microtitration plates using Mueller-Hinton II broth medium (Becton Dickinson, Franklin Lakes, NJ, USA). The final inoculum of all studied bacteria was 10^6 CFU/mL (colony forming unit per milliliter). The stock solution of tested compounds was prepared in dimethyl sulfoxide (DMSO) and diluted to a maximum of 1% of solvent content with a sterile medium.

[10] = test system: P. aeruginosa ATCC 15442; assay: MIC broth microdilution, standard strain; conditions: Pseudomonas aeruginosa, ATCC15442; P. aeruginosa ATCC 15442, standard strain, 19 h at 35 °C; read-out: minimal inhibitory concentration (MIC)
Protocol: as §3

[11] = test system: E. coli ATCC 25922; assay: MIC broth microdilution, standard strain; conditions: Escherichia coli, ATCC25922; E. coli ATCC 25922, standard strain, 19 h at 35 °C; read-out: minimal inhibitory concentration (MIC)
Protocol: as §3

[12] = test system: S. aureus NCTC 4163; assay: MIC broth microdilution, standard strain; conditions: Staphylococcus aureus, NCTC4163; S. aureus NCTC 4163, standard strain, 19 h at 35 °C; read-out: minimal inhibitory concentration (MIC)
Protocol: as §3

Row | Structure (SMILES) | MIC [1] [µg/mL] | MIC [2] [µg/mL] | MIC [3] [µg/mL] | MIC [4] [µg/mL] | MIC [5] [µg/mL] | MIC [6] [µg/mL] | MIC [7] [µg/mL] | MIC [8] [µg/mL] | MIC [9] [µg/mL] | MIC [10] [µg/mL] | MIC [11] [µg/mL] | MIC [12] [µg/mL]
1 | CC1=C(C)C2(C)CC1(C)C1C(=O)N(Nc3nnnn3-c3ccccc3Cl)C(=O)C12 (stereo not drawn) [Compound 2, 2-((1-(2-Chlorophenyl)-1H-tetrazol-5-yl)amino)-4,5,6,7-tetramethyl-3a,4,7,7a-tetrahydro-1H-4,7-methanoisoindole-1,3(2H)-dione] | 0.8 (≈ 1.94 µM) | 3.2 (≈ 7.75 µM) | 0.8 (≈ 1.94 µM) | 0.8 (≈ 1.94 µM) | 1.6 (≈ 3.88 µM) | 3.2 (≈ 7.75 µM) | 1.6 (≈ 3.88 µM) | 0.8 (≈ 1.94 µM) | 0.4 (≈ 0.969 µM) | 25.6 (≈ 62 µM) | 1.6 (≈ 3.88 µM) | 0.4 (≈ 0.969 µM)
2 | CC1=C(C)C2(C)CC1(C)C1C(=O)N(Nc3nnnn3-c3ccccc3)C(=O)C12 (stereo not drawn) [Compound 6, 4,5,6,7-Tetramethyl-2-((1-phenyl-1H-tetrazol-5-yl)amino)-3a,4,7,7a-tetrahydro-1H-4,7-methanoisoindole-1,3(2H)-dione] | 4 (≈ 10.6 µM) | 16 (≈ 42.3 µM) | 4 (≈ 10.6 µM) | 4 (≈ 10.6 µM) | 16 (≈ 42.3 µM) | 8 (≈ 21.1 µM) | 8 (≈ 21.1 µM) | 4 (≈ 10.6 µM) | 2 (≈ 5.28 µM) | > 256 | 8 (≈ 21.1 µM) | 2 (≈ 5.28 µM)
3 | CC1=C(C)C2(C)CC1(C)C1C(=O)N(Nc3nnnn3-c3cccc(C(F)(F)F)c3)C(=O)C12 (stereo not drawn) [Compound 1, 4,5,6,7-Tetramethyl-2-((1-(3-(trifluoromethyl)phenyl)-1H-tetrazol-5-yl)amino)-3a,4,7,7a-tetrahydro-1H-4,7-methanoisoindole-1,3(2H)-dione] | 0.8 (≈ 1.79 µM) | 3.2 (≈ 7.17 µM) | 0.8 (≈ 1.79 µM) | 0.8 (≈ 1.79 µM) | 1.6 (≈ 3.58 µM) | 3.2 (≈ 7.17 µM) | 3.2 (≈ 7.17 µM) | 0.8 (≈ 1.79 µM) | 0.2 (≈ 0.448 µM) | 12.8 (≈ 28.7 µM) | 0.4 (≈ 0.896 µM) | 0.2 (≈ 0.448 µM)
4 | CC1=C(C)C2(C)CC1(C)C1C(=O)N(Nc3nnnn3-c3ccccc3Br)C(=O)C12 (stereo not drawn) [Compound 3, 2-((1-(2-Bromophenyl)-1H-tetrazol-5-yl)amino)-4,5,6,7-tetramethyl-3a,4,7,7a-tetrahydro-1H-4,7-methanoisoindole-1,3(2H)-dione] | 0.8 (≈ 1.75 µM) | 3.2 (≈ 7 µM) | 0.8 (≈ 1.75 µM) | 0.8 (≈ 1.75 µM) | 1.6 (≈ 3.5 µM) | 1.6 (≈ 3.5 µM) | 1.6 (≈ 3.5 µM) | 0.8 (≈ 1.75 µM) | 0.1 (≈ 0.219 µM) | 16 (≈ 35 µM) | 0.4 (≈ 0.875 µM) | 0.1 (≈ 0.219 µM)

Now from value to compound:

Row | MIC [1] [µg/mL] | MIC [2] [µg/mL] | MIC [3] [µg/mL] | MIC [4] [µg/mL] | MIC [5] [µg/mL] | MIC [6] [µg/mL] | MIC [7] [µg/mL] | MIC [8] [µg/mL] | MIC [9] [µg/mL] | MIC [10] [µg/mL] | MIC [11] [µg/mL] | MIC [12] [µg/mL] | Structure (SMILES)
5 | 16 (≈ 36.6 µM) | > 256 | 16 (≈ 36.6 µM) | 16 (≈ 36.6 µM) | > 256 | > 256 | > 256 | 16 (≈ 36.6 µM) | 8 (≈ 18.3 µM) | > 256 | > 256 | 8 (≈ 18.3 µM) | CC(C)C12C=CC(C)(CC1)C1C(=O)N(Nc3nnnn3-c3ccc([N+](=O)[O-])cc3)C(=O)C12 (stereo not drawn) [Compound 8, 4-Isopropyl-7-methyl-2-((1-(4-nitrophenyl)-1H-tetrazol-5-yl)amino)-3a,4,7,7a-tetrahydro-1H-4,7-ethanoisoindole-1,3(2H)-dione]
6 | 16 (≈ 37.8 µM) | 256 (≈ 605 µM) | 32 (≈ 75.6 µM) | 32 (≈ 75.6 µM) | 256 (≈ 605 µM) | 256 (≈ 605 µM) | 256 (≈ 605 µM) | 16 (≈ 37.8 µM) | 8 (≈ 18.9 µM) | > 256 | 256 (≈ 605 µM) | 16 (≈ 37.8 µM) | CC1=C(C)C2(C)CC1(C)C1C(=O)N(Nc3nnnn3-c3ccc([N+](=O)[O-])cc3)C(=O)C12 (stereo not drawn) [Compound 4, 4,5,6,7-Tetramethyl-2-((1-(4-nitrophenyl)-1H-tetrazol-5-yl)amino)-3a,4,7,7a-tetrahydro-1H-4,7-methanoisoindole-1,3(2H)-dione]
7 | 16 (≈ 39.4 µM) | 32 (≈ 78.7 µM) | 16 (≈ 39.4 µM) | 8 (≈ 19.7 µM) | 32 (≈ 78.7 µM) | 32 (≈ 78.7 µM) | 32 (≈ 78.7 µM) | 16 (≈ 39.4 µM) | 4 (≈ 9.84 µM) | > 256 | 16 (≈ 39.4 µM) | 4 (≈ 9.84 µM) | Cc1ccc(-n2nnnc2NN2C(=O)C3C(C2=O)C2(C(C)C)C=CC3(C)CC2)cc1 (stereo not drawn) [Compound 10, 4-Isopropyl-7-methyl-2-((1-(p-tolyl)-1H-tetrazol-5-yl)amino)-3a,4,7,7a-tetrahydro-1H-4,7-ethanoisoindole-1,3(2H)-dione]
8 | 4 (≈ 8.49 µM) | 16 (≈ 33.9 µM) | 4 (≈ 8.49 µM) | 2 (≈ 4.24 µM) | 16 (≈ 33.9 µM) | 8 (≈ 17 µM) | 8 (≈ 17 µM) | 4 (≈ 8.49 µM) | 64 (≈ 136 µM) | > 256 | 128 (≈ 272 µM) | 64 (≈ 136 µM) | CC(C)C12C=CC(C)(CC1)C1C(=O)N(Nc3nnnn3-c3ccccc3Br)C(=O)C12 (stereo not drawn) [Compound 9, 2-((1-(2-Bromophenyl)-1H-tetrazol-5-yl)amino)-4-isopropyl-7-methyl-3a,4,7,7a-tetrahydro-1H-4,7-ethanoisoindole-1,3(2H)-dione]
